Entries after “also recorded” stand apart in the source; their conditions may differ. Where two headings read alike, the source gives them in different places.

The term IC50 denotes the concentration needed to halve the response being measured. A high value points to a need for much substance.

Series [1] relates to AR-mediated PSA expression in LNCaP cells. Description: Prostate-Specific Antigen (PSA) assay. Particulars: Table 6. Type of series: cell-based, human. Here is the method:
Prostate-Specific Antigen (PSA) Assay: The evaluation of PSA levels secreted into the media was performed in parallel to the eGFP assay using the same plates.

Series [2] can be described thus: Drug concentration in mouse blood and brain (HPLC, fluorescence). Format: in vivo, mice (C57 Black 6). As to the method: A Halo5 C18 column was used (3.0×50 mm, 5 μm particle size; injection volume: 1 μL) having a mobile phase A: 10% acetonitrile, 90% water, 10 mM NH4HCO3 and a mobile phase B: 80% acetonitrile, 20% water, 10 mM NH4HCO3, with a flow rate: 0.7 mL/min.
The dosing solutions were given to mice (C57 Black 6) by oral gavage at 8 μL per gram of body weight (rounded to the nearest 10 μL), corresponding to 30 mg/kg. After 3 h, the animals were euthanized, and then blood and brain samples were collected and stored at 4° C. until analysis.
Blood samples (clotted) were centrifuged at 9,000 RPM for 2 min×2. Aliquots of the serum (30 μL) were placed in 150 μL micro-centrifuge tubes and acetonitrile (30 μL) were added. The mixture was vortexed briefly and allowed to stand at room temperature for 30 min. Full brains were weighed into 2 mL micro-centrifuge tubes and equal amount of acetonitrile (w/v) was added. […] The samples were centrifuged at 9000 RPM for 2 min×2. The supernatants were transferred to HPLC sample vials with conical inserts, and then analyzed by HPLC.
All compounds were dosed orally to mice, and after 3 hours, the animals were euthanized and blood and brain samples were collected. Drug levels were analyzed by HPLC equipped with a fluorescence detector as described herein.

Series [3] is described as follows: Water solubility for dosing formulation. Type of series: physicochemical. Particulars: required concentration 3.75 mg/mL. Here is the method:
13822 was water soluble and was formulated as plain aqueous solution at 3.75 mg/mL. […] A formulation screen was conducted to use various pharmaceutically acceptable surfactants and additives to develop a low organic solution or metastable heterogeneous suspension suitable for oral dosing.

The target of series [4] is T1, androgen receptor (AR) transcriptional activity (Homo sapiens, UniProt P10275, T878A).
T1 sequence (P10275 1-920 T878A): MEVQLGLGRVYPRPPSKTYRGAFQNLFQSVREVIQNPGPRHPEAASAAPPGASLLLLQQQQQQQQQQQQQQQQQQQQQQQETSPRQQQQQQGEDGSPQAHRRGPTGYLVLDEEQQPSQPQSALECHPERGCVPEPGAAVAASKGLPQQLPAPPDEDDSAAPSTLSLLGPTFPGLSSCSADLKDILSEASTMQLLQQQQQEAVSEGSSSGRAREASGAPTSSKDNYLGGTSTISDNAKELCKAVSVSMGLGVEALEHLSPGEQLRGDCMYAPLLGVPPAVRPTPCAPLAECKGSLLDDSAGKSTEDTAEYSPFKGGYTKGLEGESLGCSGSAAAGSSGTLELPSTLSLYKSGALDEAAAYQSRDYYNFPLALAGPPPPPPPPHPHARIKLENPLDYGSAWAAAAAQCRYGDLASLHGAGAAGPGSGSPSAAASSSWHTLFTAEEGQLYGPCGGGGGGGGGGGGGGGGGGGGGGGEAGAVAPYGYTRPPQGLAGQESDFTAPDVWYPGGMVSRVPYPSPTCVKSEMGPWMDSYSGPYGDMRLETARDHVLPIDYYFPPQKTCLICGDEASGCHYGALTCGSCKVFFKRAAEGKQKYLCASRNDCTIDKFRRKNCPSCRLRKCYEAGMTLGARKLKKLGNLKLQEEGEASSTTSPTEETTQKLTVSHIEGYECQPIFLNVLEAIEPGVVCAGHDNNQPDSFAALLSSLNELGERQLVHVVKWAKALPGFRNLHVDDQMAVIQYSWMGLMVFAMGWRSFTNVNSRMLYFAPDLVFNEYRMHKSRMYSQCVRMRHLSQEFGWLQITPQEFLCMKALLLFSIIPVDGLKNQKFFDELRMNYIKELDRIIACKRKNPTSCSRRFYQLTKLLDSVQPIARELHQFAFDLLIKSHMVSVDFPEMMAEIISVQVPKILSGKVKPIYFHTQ
The experiment in a line: eGFP cellular AR transcription assay. Particulars: for AR inhibition activity: eGFP assay; for IC50-eGFP: Table 4, substitution on quinoline moiety of VPC-13566.

The test system of series [5] is nuclear accumulation of exogenous (293T) or endogenous (LNCaP) AR. The experiment in a line: AR nuclear translocation. Type of series: cell-based. The note with it: 293T (exogenous) or LNCaP (endogenous), DHT. An excerpt:
B) Heatmap of genes from the GSEA-MySigDB “Hallmark androgen response”. […] D) Nuclear translocation of exogenous (AR-eGFP in 293T) or endogenous (LNCaP) AR following treatment with DHT.

Series [6] in a line: Microsomal stability (half-life). Format: in vitro ADME, human. The note with it: for half-life: Table 6.
Series [7] addresses androgen binding site (ABS) of recombinant wild type LBD (Rattus norvegicus, UniProt P15207).
Series [8] has as its system AR protein-protein interactions on chromatin. Description: RIME of the AR interactome. The note with it: DHT treated cells.
The subject of series [9] is chromatin binding of AR to enhancers near KLK3 and FKBP5. Description: ChIP-PCR of AR binding sites. Format: cell-based.
The subject of a further series is LNCaP cells. Description: Cell viability / proliferation assay (Prestoblue), LNCaP. Type of series: cell-based, human. Particulars: 0.1 nM R1881. As to the method:
(§1) After 3 days of treatment, cell density was measured using the Prestoblue™ assay (Thermo Fisher Scientific™).

The test system of a further series is PC3 (AR negative) cells. Description: Cell viability / proliferation assay (Prestoblue), PC3. Format: cell-based, human. Here is the method:
as §1

Series [10] has as its system androgen-mediated transcription in LNCaP cells. Description: RNA-seq / GSEA on LNCaP cells. Format: cell-based, human. The note with it: for GSEA normalized enrichment score (canonical AR genes): 10 nM DHT; for differentially expressed genes / downregulated genes / upregulated genes: compared to vehicle; for p53 pathway: with androgen.
The mark [11] stands for this setting: human, microsomes, read-out: Half-life.

Chain of androgen binding site (ABS) of recombinant wild type LBD (P15207 651-882 limits assumed): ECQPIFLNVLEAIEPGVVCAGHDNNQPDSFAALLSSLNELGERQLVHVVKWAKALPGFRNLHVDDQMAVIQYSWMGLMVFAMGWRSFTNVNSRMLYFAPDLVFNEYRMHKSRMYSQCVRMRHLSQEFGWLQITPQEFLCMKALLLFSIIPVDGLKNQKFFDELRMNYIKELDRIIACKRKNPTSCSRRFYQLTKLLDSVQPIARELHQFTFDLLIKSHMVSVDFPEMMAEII

The molecule “2-(2-(5,6,7-Trifluoro-1H-indol-3-yl)quinolin-5-yl)thiazole [Compound 13801]” registered an IC50 in series [1] greater than 10000 nM.

For `Cc1cccc2c(-c3ccc4ccccc4n3)c[nH]c12` [Compound 13566, 2-(7-Methyl-1H-indol-3-yl)quinoline], in series [2] (compared with 13789), the “blood concentration level” value is recorded as “much lower”. Further, the “penetration of the blood-brain-barrier” value in series [2] (mice, 3 hour time point) was “significantly penetrated the blood-brain-barrier”. The “solubility in water” value in [3] was “not soluble in water at the required concentration”.

As for `Cc1ccc2c(-c3ccc4ccccc4n3)c[nH]c2c1F` [Compound 13619], the “AR inhibition activity” value in series [4] is “weaker or even inactive”.

With `Cc1cccc2c(-c3ccc4c(O)cccc4n3)c[nH]c12` [Compound 13620], the IC50-eGFP entry in [4] was “inactive”.

As for `Cc1cccc2c(-c3ccc4c(F)cccc4n3)c[nH]c12` [Compound 13623], the IC50-eGFP entry in [4] is “inactive”.

Consider `Fc1cc(Cl)cc2c(-c3ccc4ccccc4n3)c[nH]c12` [Compound 13641], for which the “AR inhibition activity” value in series [4] was “weaker or even inactive”.

`CNC(=O)c1cccc2nc(-c3c[nH]c4c(F)c(F)c(F)cc34)ccc12` [Compound 13719] had an IC50 in series [1] (Homo sapiens, LNCaP) of 130 nM.

Take `CC(C)NC(=O)c1cccc2nc(-c3c[nH]c4c(F)c(F)c(F)cc34)ccc12` [Compound 13789, N-isopropyl-2-(5,6,7-trifluoro-1H-indol-3-yl)quinoline-5-carboxamide]: in [5], the “nuclear accumulation of AR” value was “only marginally affected nuclear accumulation”. Besides, in series [2] (serum and brain samples), the “metabolic stability judged from polar peaks in chromatograms” value is given as “metabolically more stable”. For the same molecule, the IC50 in series [1] (Homo sapiens, LNCaP) amounted to 80 nM. In series [6], the “microsome stability” value is “good microsome stability” and the half-life was 206 (206.26). Moreover, the “% Disp. @ 1 uM (DHT displacement from the ABS site)” value in series [7] (1 uM) is on record as 4 ± 3.8%. Besides, the “ABS inhibition” value in [7] (10 μM) is “no significant ABS inhibition”. Besides, in series [7] (various concentrations), the “DHT displacement from ABS” value is on record as “Very little displacement”. In addition, the “AR protein-protein interactions disrupted (of 112 enriched)” value in series [8] is reported as 34. The “chromatin binding of AR” value in series [9] is “significantly reduced the chromatin binding of AR”. The “effect on growth of LNCaP cells” value with LNCaP cells is reported as “concentration-dependent inhibition of growth; also recorded: significant decrease in the growth”. Besides, the “effect on growth of PC3 cells” value in the series on PC3 (AR negative) cells is “not with AR-independent PC3 cells; also recorded: did not exhibit any inhibitory effect”. For the same molecule, in series [10], the “GSEA normalized enrichment score (canonical AR genes)” value is −3.33, the differentially expressed genes amounted to 1514 genes, the downregulated genes came to 967 and the upregulated genes is 547. Besides, in series [10], the “p53 pathway” value was “upregulation of the p53 pathway”.

Regarding `CN(C)C(=O)c1cccc2nc(-c3c[nH]c4c(F)c(F)c(F)cc34)ccc12` [Compound 13791], the IC50 was greater than 10000 nM in series [1] (Homo sapiens, LNCaP) and greater than 10000 nM in series [4].

In the case of `Fc1cc2c(-c3ccc4c(-c5cncs5)cccc4n3)c[nH]c2c(F)c1F` [Compound 13793, 5-(2-(5,6,7-Trifluoro-1H-indol-3-yl)quinolin-5-yl)thiazole], in [1] (Homo sapiens, LNCaP), the IC50 worked out at 330 nM. The half-life in [6] (setting [11]) was found to be 1.73 h.

For the molecule `Fc1cc2c(-c3ccc4c(-c5cnco5)cccc4n3)c[nH]c2c(F)c1F` [Compound 13794], the IC50 in series [1] (Homo sapiens, LNCaP) is greater than 10000 nM; in series [4], greater than 10000 nM.

`O=C(NC1CC1)c1cccc2nc(-c3c[nH]c4c(F)c(F)c(F)cc34)ccc12` [Compound 13795, N-Cyclopropyl-2-(5,6,7-trifluoro-1H-indol-3-yl)quinoline-5-carboxamide]: the IC50 in [1] (Homo sapiens, LNCaP) is 230 nM. For the same molecule, the “microsome stability” value in series [6] is “good microsome stability”. The half-life in series [6] (setting [11]) turned out to be 4.35 h.

As to `CNC(=O)c1c(F)ccc2nc(-c3c[nH]c4c(F)c(F)c(F)cc34)ccc12` [Compound 13796], the IC50 in [1] (Homo sapiens, LNCaP) is 950 nM; in series [4] it was 5480 nM.

Take `O=C(NC1CC1)c1c(F)ccc2nc(-c3c[nH]c4c(F)c(F)c(F)cc34)ccc12` [Compound 13797]: the IC50 in [1] (Homo sapiens, LNCaP) was 1500 nM; in [4], 1980 nM.

For the molecule `Fc1cc2c(-c3ccc4c(-c5cncs5)c(F)ccc4n3)c[nH]c2c(F)c1F` [Compound 13799], the IC50 in [1] (Homo sapiens, LNCaP) came out at 750 nM; in series [4], 560 nM.

For the molecule `CC(C)NC(=O)c1c(F)ccc2nc(-c3c[nH]c4c(F)c(F)c(F)cc34)ccc12` [Compound 13802], the IC50 in series [1] (Homo sapiens, LNCaP) is greater than 10000 nM; in [4], greater than 10000 nM.

In the case of `CN(C)C(=O)c1c(F)ccc2nc(-c3c[nH]c4c(F)c(F)c(F)cc34)ccc12` [Compound 13803], the IC50 in series [4] was greater than 10000 nM.

Consider `OC(c1cccc2nc(-c3c[nH]c4c(F)c(F)c(F)cc34)ccc12)C(F)(F)F` (centres unmarked) [Compound 13804], for which, in [4], half-maximal inhibition (IC50) required 32000 nM.

Take `O=C(NCC1CC1)c1cccc2nc(-c3c[nH]c4c(F)c(F)c(F)cc34)ccc12` [Compound 13807, N-(Cyclopropylmethyl)-2-(5,6,7-trifluoro-1H-indol-3-yl)quinoline-5-carboxamide]: in series [1] (Homo sapiens, LNCaP), the IC50 was 160 nM. In [6], the “microsome stability” value is recorded as “good microsome stability”.

`O=C(NCC(F)F)c1cccc2nc(-c3c[nH]c4c(F)c(F)c(F)cc34)ccc12` [Compound 13808, N-(2,2-Difluoroethyl)-2-(5,6,7-trifluoro-1H-indol-3-yl)quinoline-5-carboxamide]: the “microsome stability” value in series [6] is given as “good microsome stability”.

With `CNC(=O)c1ccc(N2C(=S)N(c3ccc(C#N)c(C(F)(F)F)c3)C(=O)C2(C)C)cc1F` [Enzalutamide, reference compound], in series [10], the “GSEA normalized enrichment score (canonical AR genes)” value is given as −2.31, the differentially expressed genes worked out at 586 genes, the downregulated genes was 372 and the upregulated genes is on record as 214. For the same molecule, the “p53 pathway” value in [10] was “not observed”.

The values above are taken from patent US20240150313A1, “TRI-SUBSTITUTED INDOLE BINDING FUNCTION 3 (BF3) COMPOUNDS AND METHODS FOR THEIR USE” (The University of British Columbia, priority 2021, published 2024).
